The record followed here is ChEMBL document CHEMBL1124229, “Spiro hydantoin aldose reductase inhibitors” (J Med Chem, 1988).

The structures appear in SMILES notation.

Experiment [1] addresses T1, Aldo-keto reductase family 1 member B1 (Bos taurus, UniProt P16116). Nature of the experiment: In vitro inhibition of partially purified calf lens aldose reductase.
Another experiment is filed under the species Rattus norvegicus. Nature of the experiment: Ability to cause 50% reduction in sorbitol levels of sciatic nerve of streptozotocinized rats was determined. It is filed as functional. To be noted: Rattus norvegicus, Sciatic nerve; read-out: ED50.
In experiment [2] the target is T1, Aldo-keto reductase family 1 member B1. Briefly: Inhibition of partially purified calf lens aldose reductase; value ranges from 10E-4 to 10e-5 M.

The IC50 is the concentration needed to halve the response being measured. A lower IC50 goes with inhibition by little substance. For the compound `O=C(O)C1CCSc2ccc(Cl)cc21` (stereo unspecified), the IC50 in experiment [1] is under 100 µM. A word on the ED50: it is the dose that gives a 50% effect, or the effect in half of the subjects. Regarding `c1ccc2c(c1)CCC21CCNC1` (stereo unspecified), the IC50 in experiment [1] was over 100 µM. The ED50 in the experiment filed under Rattus norvegicus is over 25 mg/kg.

For the compound `CC1CCc2ccccc2C12NC(=O)NC2=O` (stereo unspecified), the IC50 in experiment [1] stood at 100 µM. Further, in the experiment filed under Rattus norvegicus, the ED50 was over 25 mg/kg.

In experiment [1], `O=C1NC(=O)C2(CCCc3sccc32)N1` (stereo unspecified) had an IC50 of 100 µM. Further, the ED50 in the experiment filed under Rattus norvegicus was 25 mg/kg. Regarding `Cc1cc2c(n1C)CCCC21NC(=O)NC1=O` (stereo unspecified), the IC50 in experiment [1] was over 100 µM. Also, the median effective dose (ED50) in the experiment filed under Rattus norvegicus is over 25 mg/kg. With `O=C1NC(=O)C2(CCOc3ccc(CN4CCCCC4)cc32)N1` (stereo unspecified), half-maximal inhibition in experiment [1] (IC50) required 100 µM. For `O=C(O)C1CCOc2ccccc21` (stereo unspecified), in experiment [1], 100 µM corresponded to half-maximal inhibition (IC50). The compound `O=C1NC(=O)C2(CCn3c(=O)ccc4cc(Cl)cc2c43)N1` (stereo unspecified) gave an IC50 in experiment [1] of under 0.1 µM. Also, in the experiment listed under Rattus norvegicus, the ED50 is over 1.5 mg/kg.

`O=C(O)C1CCOc2c(Cl)cc(Cl)cc21` (stereo unspecified) displayed an IC50 in experiment [1] of 10 µM. `O=C1NC(=O)C2(CCS(=O)(=O)c3c(Cl)cc(Cl)cc32)N1` (stereo unspecified): the half-inhibitory concentration (IC50) in experiment [1] is 0.1 µM. Moreover, the ED50 in the experiment listed under Rattus norvegicus was over 1.5 mg/kg. In turn, `O=C1NC(=O)C2(CCCC3CCCCC32)N1` (stereo unspecified) displayed an IC50 in experiment [1] of over 100 µM. Also, the ED50 in the experiment listed under Rattus norvegicus was under 25 mg/kg. In the case of `O=C1NC(=O)C2(CCOc3ccc(Cl)cc32)O1` (stereo unspecified), in the experiment listed under Rattus norvegicus, the ED50 is over 1.5 mg/kg. Regarding `O=C1NC(=O)C2(CCCc3occc32)N1` (stereo unspecified), in the experiment listed under Rattus norvegicus, the 50% effective dose (ED50) turned out to be 25 mg/kg. Compound `COc1cc2c(c(OC)c1OC)C1(CC2)NC(=O)NC1=O` (stereo unspecified) gave a half-inhibitory concentration (IC50) in experiment [1] of 100 µM. In experiment [1], `O=C1NC(=O)C2(Cc3ccccc3C2)N1` had an IC50 of over 100 µM. The ED50 in the experiment filed under Rattus norvegicus is over 25 mg/kg. Taken in the same sequence, the figures for `O=C1NCC2(CCOc3ccc(Cl)cc32)N1` (stereo unspecified) were 10 µM and over 10 mg/kg.

In the case of `O=C1NC(=O)C2(CCc3ccc(F)cc32)N1` (stereo unspecified), the IC50 in experiment [2] is 100 µM. Further, the ED50 in the experiment listed under Rattus norvegicus worked out at 5 mg/kg.

The compound `O=C1NC(=O)C2(CCOc3ccc(Cl)cc32)C(=O)N1` yielded an IC50 in experiment [2] of 100 µM. The ED50 in the experiment filed under Rattus norvegicus is over 10 mg/kg. As to `O=C1NC(=O)C2(CCCc3ncccc32)N1` (stereo unspecified), in experiment [1], half-maximal inhibition (IC50) required 10 µM. Further, the ED50 in the experiment listed under Rattus norvegicus turned out to be 10 mg/kg. As for `O=C1CC2(CCCc3ccccc32)C(=O)N1` (stereo unspecified), the IC50 in experiment [1] was over 100 µM. Besides, the ED50 in the experiment listed under Rattus norvegicus was found to be 5 mg/kg. With `O=C1NC(=O)C2(CCOc3c(-c4ccccc4)cccc32)N1` (stereo unspecified), the median effective dose (ED50) in the experiment listed under Rattus norvegicus came to 10 mg/kg. For `CN1CCC2(NC(=O)NC2=O)c2ccccc21` (stereo unspecified), in experiment [2], 100 µM corresponded to half-maximal inhibition (IC50). The median effective dose (ED50) in the experiment filed under Rattus norvegicus was over 25 mg/kg. `NC(=O)NC(=O)C1CCc2ccccc21` (stereo unspecified): in experiment [1], the IC50 was determined as 100 µM. Further, the ED50 in the experiment listed under Rattus norvegicus is over 10 mg/kg.

In experiment [1], `O=C1NC(=O)C2(CCOc3ccc4ccccc4c32)N1` (stereo unspecified) showed a half-maximal inhibitory concentration (IC50) of 10 µM. Further, the ED50 in the experiment filed under Rattus norvegicus is over 1.5 mg/kg. Taken in the same sequence, the figures for `O=C1NC(=O)C2(CCSc3cc(Cl)ccc32)N1` (stereo unspecified) were 1 µM and over 1.5 mg/kg. The compound `COc1ccc(Cl)c2c1C1(CCO2)NC(=O)NC1=O` (stereo unspecified) yielded an IC50 in experiment [1] of over 100 µM. Consider `O=C1NC(=O)C2(CCOc3c(Cl)cc(Cl)cc32)N1` (stereo unspecified), for which, in experiment [1], the IC50 was under 0.1 µM. The ED50 in the experiment listed under Rattus norvegicus came to 0.25 mg/kg.

In experiment [1], `Cc1ccc(C)c2c1OCCC21NC(=O)NC1=O` (stereo unspecified) gave an IC50 of 1 µM. Moreover, in the experiment filed under Rattus norvegicus, the ED50 was over 1.5 mg/kg. Taken in the same sequence, the figures for `COc1ccc(Cl)c2c1CCCC21NC(=O)NC1=O` (stereo unspecified) were over 100 µM and over 25 mg/kg.

In experiment [1], `O=C(O)C1CCc2ccccc21` (stereo unspecified) had a half-maximal inhibitory concentration (IC50) of over 100 µM. For `COc1cccc2c1CCCC21NC(=O)NC1=O` (stereo unspecified), the IC50 in experiment [1] came out at 10 µM. Further, the 50% effective dose (ED50) in the experiment listed under Rattus norvegicus was over 25 mg/kg.

As for `O=C1NC(=S)NC12CCCc1ccccc12` (stereo unspecified), the IC50 in experiment [1] is over 100 µM. In experiment [1], `O=C1NCNC12CCCc1ccccc12` (stereo unspecified) registered an IC50 of over 100 µM. Also, the ED50 in the experiment listed under Rattus norvegicus worked out at 25 mg/kg. With `O=C1NC(=O)C2(CCSc3c(Cl)cccc32)N1` (stereo unspecified), in experiment [1], the IC50 amounted to 100 µM. Besides, the ED50 in the experiment listed under Rattus norvegicus was over 1.5 mg/kg. As for `COc1cc2c(cc1OC)C1(CCC2)NC(=O)NC1=O` (stereo unspecified), the half-maximal inhibitory concentration (IC50) in experiment [2] amounted to 100 µM. Also, in the experiment listed under Rattus norvegicus, the ED50 is over 5 mg/kg. Taken in the same sequence, the figures for `O=C1NC(=O)C2(CCc3ccc(O)cc32)N1` (stereo unspecified) were 100 µM and over 10 mg/kg. For the compound `O=C1NC(=O)C2(CCCC2c2ccccc2)N1` (stereo unspecified), the IC50 in experiment [1] is over 100 µM. In addition, the ED50 in the experiment filed under Rattus norvegicus was over 25 mg/kg. In turn, `O=C1NC(=O)C2(CCOc3c(F)cccc32)N1` (stereo unspecified) gave an IC50 in experiment [1] of under 100 µM. In experiment [1], `O=C1NC(=O)C2(CCCc3ccccc32)O1` (stereo unspecified) registered an IC50 of 10 µM. Besides, the 50% effective dose (ED50) in the experiment listed under Rattus norvegicus was over 50 mg/kg. Consider `O=C1NC(=O)C2(CCOc3c2ccc2ccccc32)N1` (stereo unspecified), for which, in experiment [1], the IC50 was under 100 µM. Further, the ED50 in the experiment filed under Rattus norvegicus was over 1.5 mg/kg. Taken in the same sequence, the figures for `O=C1NC(=O)C2(CCOc3ccccc32)N1` (stereo unspecified) were 10 µM and 5 mg/kg. Taken in the same sequence, the figures for `O=C1NC(=O)[C@@]2(CCSc3ccc(F)cc32)N1` were under 0.1 µM and 0.75 mg/kg. As to `O=C1N=C(O)O[C@@]12CCOc1ccc(Cl)cc12`, the midpoint of inhibition in experiment [2], the IC50, lay at 100 µM.

`COc1ccc2c(c1)C1(CC2)NC(=O)NC1=O` (stereo unspecified) gave an IC50 in experiment [1] of 10 µM. The 50% effective dose (ED50) in the experiment filed under Rattus norvegicus worked out at 10 mg/kg.

`O=C(O)C1Cc2ccccc2C1` yielded an IC50 in experiment [1] of 100 µM.
